In ChEMBL document CHEMBL1127711, “Preparation of a novel series of phosphonate norstatine renin inhibitors” (Bioorg Med Chem Lett, 1994):

Target: T1, Renin (Homo sapiens, UniProt P00797)
T1 sequence (P00797 whole entry): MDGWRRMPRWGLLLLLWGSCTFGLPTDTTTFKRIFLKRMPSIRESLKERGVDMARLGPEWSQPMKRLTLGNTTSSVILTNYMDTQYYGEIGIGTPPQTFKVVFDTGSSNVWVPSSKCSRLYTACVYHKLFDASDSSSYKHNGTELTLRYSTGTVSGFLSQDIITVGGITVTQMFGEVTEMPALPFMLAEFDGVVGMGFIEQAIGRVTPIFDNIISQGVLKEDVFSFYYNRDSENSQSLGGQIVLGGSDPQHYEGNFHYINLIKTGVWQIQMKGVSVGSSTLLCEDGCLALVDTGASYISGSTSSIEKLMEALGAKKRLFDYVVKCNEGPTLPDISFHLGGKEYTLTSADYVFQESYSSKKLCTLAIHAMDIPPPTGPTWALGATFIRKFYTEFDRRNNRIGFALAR
Test: Compound was tested for the inhibition of human plasma renin(Hu Renin)
Assay type: cell-free

Row | IC50 | SMILES
1 | 60 nM | CCCOP(=O)(OCCC)C(O)[C@H](CC1CCCCC1)NC(=O)[C@H](CSC)NC(=O)[C@H](Cc1ccccc1)NC(=O)N1CCOCC1 (some centres not stated)
2 | 1400 nM | CSC[C@H](NC(=O)[C@H](Cc1ccccc1)NC(=O)N1CCOCC1)C(=O)N[C@@H](CC1CCCCC1)C(O)P(=O)(OC(C)C)OC(C)C (some centres not stated)
3 | 190 nM | COP(=O)(OC)C(O)[C@H](CC1CCCCC1)NC(=O)[C@H](CCc1cnc[nH]1)NC(=O)[C@H](Cc1ccccc1)NC(=O)N1CCOCC1 (some centres not stated)
4 | 190 nM | CSC[C@H](NC(=O)[C@H](Cc1ccccc1)NC(=O)N1CCOCC1)C(=O)N[C@@H](CC1CCCCC1)C(O)P(=O)(OCc1ccccc1)OCc1ccccc1 (some centres not stated)
5 | 32 nM | CCCC[C@H](NC(=O)[C@H](Cc1ccccc1)NC(=O)N1CCOCC1)C(=O)N[C@@H](CC1CCCCC1)C(O)P(=O)(OC)OC (some centres not stated)
6 | 25 nM | CCOP(=O)(OCC)C(O)[C@H](CC1CCCCC1)NC(=O)[C@H](CSC)NC(=O)[C@H](Cc1ccccc1)NC(=O)N1CCOCC1 (some centres not stated)
7 | 5.8 nM | COP(=O)(OC)C(O)[C@H](CC1CCCCC1)NC(=O)[C@H](CSC)NC(=O)[C@H](Cc1ccccc1)NC(=O)N1CCOCC1 (some centres not stated)
